Experimental data reported in DBAASP.
≈ marks a conversion by molar mass, not a printed value. Where “and” joins values, the source holds several entries; their conditions need not be identical. Identical values can stand only once. Values belong to the molecule of their own block, whether it stands above or below them.

Columns and labels:
Experiment in all cases: ≥ marks a high value that may be exact or a test limit, other limits are often not marked, values filed in µg/mL are converted to µM
Bacillus cereus = tested on: Bacillus cereus
Escherichia coli = tested on: Escherichia coli
[1] = tested on: Escherichia coli NCTC 10418
[2] = tested on: Staphylococcus aureus NCTC 10788
[3] = tested on: Candida albicans NCPF 1467
[4] = tested on: Staphylococcus aureus NCTC 12493
[5] = tested on: Enterococcus faecalis NCTC 12697
[6] = tested on: Pseudomonas aeruginosa ATCC 27853
Escherichia coli K-12 = tested on: Escherichia coli K-12
[7] = tested on: Staphylococcus aureus USA 300
[8] = tested on: Staphylococcus aureus ATCC BAA-1556
Escherichia coli BW25113 = tested on: Escherichia coli BW25113
[9] = tested on: Micrococcus luteus ATCC 4698

SMILES: CC[C@H](C)[C@H](NC(=O)[C@H](C)NC(=O)[C@H](CCCCN)NC(=O)[C@@H]1CCCN1C(=O)[C@@H](NC(=O)[C@H](CC(C)C)NC(=O)[C@H](CCCCN)NC(=O)[C@H](Cc1ccccc1)NC(=O)[C@H](CC(C)C)NC(=O)[C@@H](N)Cc1ccccc1)[C@@H](C)CC)C(=O)N[C@@H](CCCCN)C(=O)NCC(=O)N[C@@H](CC(C)C)C(=O)N[C@@H](CC(C)C)C(=O)N[C@@H](CCCCN)C(=O)N[C@@H](C)C(=O)N[C@@H](Cc1ccccc1)C(=O)N[C@H](C=O)CCCCN [FLFKLIPKAIKGLLKAFK]
MIC [1]: 8 µM (≈ 16.5 µg/mL)
MIC [2]: 4 µM (≈ 8.24 µg/mL)
MIC [3]: 4 µM (≈ 8.24 µg/mL)

SMILES: CC[C@H](C)[C@H](NC(=O)[C@H](C)NC(=O)CNC(=O)[C@@H](NC(=O)[C@@H](N)Cc1ccccc1)C(C)C)C(=O)N[C@@H](C)C(=O)N[C@@H](C)C(=O)N[C@@H](C)C(=O)N[C@@H](CC(C)C)C(=O)N1CCC[C@H]1C(=O)N[C@@H](Cc1cnc[nH]1)C(=O)N[C@H](C(=O)N[C@H](C(=O)N[C@@H](CO)C(=O)N[C@@H](C)C(=O)N[C@H](C(=O)N[C@@H](CCCCN)C(=O)N[C@@H](CC(N)=O)C(=O)N[C@@H](C)C(=O)N[C@@H](CC(C)C)C(=O)O)[C@@H](C)CC)[C@@H](C)CC)C(C)C [FVGAIAAALPHVISAIKNAL]
MIC [2]: 16 µM (≈ 31.6 µg/mL)
MIC [3]: ≥ 120 µM

SMILES: CC[C@H](C)[C@H](NC(=O)[C@H](CCCN=C(N)N)NC(=O)[C@H](CCC(N)=O)NC(=O)[C@@H](NC(=O)[C@@H](NC(=O)[C@H](CCCN=C(N)N)NC(=O)[C@H](CCCCN)NC(=O)[C@H](Cc1ccccc1)NC(=O)CN)[C@@H](C)CC)C(C)C)C(=O)N[C@@H](CCCCN)C(=O)N[C@@H](CC(=O)O)C(=O)N[C@@H](Cc1ccccc1)C(=O)N[C@@H](CC(C)C)C(=O)N[C@@H](C)C(=O)N[C@@H](CC(N)=O)C(=O)N[C@@H](CC(C)C)C(=O)N[C@H](C(N)=O)C(C)C [GFKRIVQRIKDFLANLV]
MIC (Escherichia coli K-12): 15 µM (≈ 30.2 µg/mL)
MIC [7]: 7.5 µM and 3.1 µM

SMILES: CC(C)C[C@H](NC(=O)[C@H](CC(C)C)NC(=O)[C@H](CC(C)C)NC(=O)[C@H](CC(C)C)NC(=O)[C@H](CC(C)C)NC(=O)[C@H](CC(C)C)NC(=O)[C@H](CCCCN)NC(=O)[C@H](CC(C)C)NC(=O)[C@@H](N)CCCCN)C(N)=O [KLKLLLLLL]
MIC [8]: ≥ 100 µM

SMILES: CC[C@H](C)[C@H](NC(=O)[C@H](CCCN=C(N)N)NC(=O)[C@@H](N)CCCN=C(N)N)C(=O)N[C@@H](CCCN=C(N)N)C(=O)N[C@@H](Cc1ccccc1)C(=O)N[C@@H](CCCN=C(N)N)C(=O)N1CCC[C@H]1C(=O)N1CCC[C@H]1C(=O)N[C@@H](Cc1ccc(O)cc1)C(=O)N[C@@H](CC(C)C)C(=O)N1CCC[C@H]1C(=O)N[C@@H](CCCN=C(N)N)C(=O)N1CCC[C@H]1C(=O)NCC(=O)N[C@@H](CCCN=C(N)N)C(=O)N[C@@H](CCCN=C(N)N)C(=O)O [RRIRFRPPYLPRPGRR]
MIC (Escherichia coli BW25113): 4 µM (≈ 8.37 µg/mL)

SMILES: CC[C@H](C)[C@H](NC(=O)[C@@H]1CCCN1C(=O)[C@H](CCCN=C(N)N)NC(=O)[C@H](CCCN=C(N)N)NC(=O)[C@H](CCCN=C(N)N)NC(=O)[C@H](Cc1c[nH]c2ccccc12)NC(=O)[C@@H]1CCCN1C(=O)[C@H](CCCN=C(N)N)NC(=O)[C@H](CCCN=C(N)N)NC(=O)[C@H](CCCN=C(N)N)NC(=O)[C@@H](N)CCCN=C(N)N)C(=O)N[C@@H](CCCN=C(N)N)C(=O)N1CCC[C@H]1C(=O)N1CCC[C@H]1C(=O)N[C@@H](Cc1ccccc1)C(=O)N[C@@H](Cc1ccc(O)cc1)C(=O)N[C@@H](Cc1c[nH]c2ccccc12)C(=O)O [RRRRPWRRRPIRPPFYW]
MIC (Escherichia coli BW25113): 8 µM (≈ 19.6 µg/mL)

SMILES: CC[C@H](C)[C@H](NC(=O)[C@@H]1CCCN1C(=O)[C@H](CCCN=C(N)N)NC(=O)[C@H](CCCN=C(N)N)NC(=O)[C@H](Cc1c[nH]c2ccccc12)NC(=O)[C@@H](N)CCCN=C(N)N)C(=O)N[C@@H](CCCN=C(N)N)C(=O)N[C@@H](CCCN=C(N)N)C(=O)N1CCC[C@H]1C(=O)N1CCC[C@H]1C(=O)N[C@H](C(=O)N[C@@H](CCCN=C(N)N)C(=O)N1CCC[C@H]1C(=O)N1CCC[C@H]1C(=O)N[C@@H](Cc1c[nH]c2ccccc12)C(=O)N[C@@H](Cc1ccc(O)cc1)C(=O)N1CCC[C@H]1C(=O)O)[C@@H](C)CC [RWRRPIRRPPIRPPWYP]
MIC (Escherichia coli BW25113): 8 µM (≈ 18.4 µg/mL)

SMILES: CC[C@H](C)[C@H](NC(=O)[C@@H]1CCCN1C(=O)[C@H](Cc1c[nH]c2ccccc12)NC(=O)[C@H](CCCN=C(N)N)NC(=O)[C@H](Cc1c[nH]c2ccccc12)NC(=O)[C@@H](N)CCCN=C(N)N)C(=O)N[C@@H](CCCN=C(N)N)C(=O)N[C@@H](CCCN=C(N)N)C(=O)N1CCC[C@H]1C(=O)N1CCC[C@H]1C(=O)N[C@H](C(=O)N[C@@H](CCCN=C(N)N)C(=O)N1CCC[C@H]1C(=O)N1CCC[C@H]1C(=O)N[C@@H](Cc1ccccc1)C(=O)N[C@@H](Cc1ccc(O)cc1)C(=O)N1CCC[C@H]1C(=O)O)[C@@H](C)CC [RWRWPIRRPPIRPPFYP]
MIC (Escherichia coli BW25113): 8 µM (≈ 18.3 µg/mL)

SMILES: CC(C)C[C@H](NC(=O)[C@H](Cc1c[nH]c2ccccc12)NC(=O)[C@H](Cc1c[nH]c2ccccc12)NC(=O)[C@H](CC(C)C)NC(=O)[C@H](Cc1c[nH]c2ccccc12)NC(=O)[C@H](CCCN=C(N)N)NC(=O)[C@H](CC(C)C)NC(=O)[C@H](Cc1c[nH]c2ccccc12)NC(=O)[C@@H](N)Cc1c[nH]c2ccccc12)C(N)=O [WWLRWLWWL]
MIC [8]: 6.25 µM (≈ 9.02 µg/mL)

SMILES: CC(C)C[C@H](NC(=O)[C@H](Cc1c[nH]c2ccccc12)NC(=O)[C@H](Cc1c[nH]c2ccccc12)NC(=O)[C@H](CC(C)C)NC(=O)[C@H](Cc1c[nH]c2ccccc12)NC(=O)[C@H](Cc1c[nH]c2ccccc12)NC(=O)[C@H](CC(C)C)NC(=O)[C@H](Cc1c[nH]c2ccccc12)NC(=O)[C@@H](N)Cc1c[nH]c2ccccc12)C(N)=O [WWLWWLWWL]
MIC [8]: ≥ 100 µM

The next lines start with the values.

MIC (Bacillus cereus): ≥ 128 µM
MIC (Escherichia coli): > 128 µM
SMILES: CC[C@H](C)[C@H](NC(=O)[C@H](CC(C)C)NC(=O)[C@H](CCCN=C(N)N)NC(=O)[C@H](CCC(=O)O)NC(=O)[C@H](CC(C)C)NC(=O)[C@@H](NC(=O)[C@@H]1CCCN1C(=O)[C@H](CC(C)C)NC(=O)[C@H](C)NC(=O)[C@H](Cc1ccccc1)NC(=O)[C@H](C)NC(=O)[C@H](C)NC(=O)[C@@H](NC(=O)[C@H](CCCCN)NC(=O)CNC(=O)[C@@H](NC(=O)CNC(=O)[C@@H](NC(=O)[C@H](C)NC(=O)[C@H](C)N)[C@@H](C)O)[C@@H](C)O)[C@@H](C)O)C(C)C)C(=O)O [AATGTGKTAAFALPVLERLI]

MIC [1]: ≥ 64.9 µM
MIC [2]: 4.06 µM (≈ 8 µg/mL)
MIC [3]: 8.11 µM (≈ 16 µg/mL)
SMILES: CC[C@H](C)[C@H](NC(=O)CNC(=O)CNC(=O)[C@H](C)NC(=O)[C@@H](NC(=O)[C@H](CCCCN)NC(=O)[C@@H]1CCCN1C(=O)[C@@H](NC(=O)[C@H](CCSC)NC(=O)[C@H](CO)NC(=O)[C@H](CC(C)C)NC(=O)[C@@H](N)Cc1ccccc1)[C@@H](C)CC)[C@@H](C)CC)C(=O)N[C@@H](C)C(=O)N[C@@H](CO)C(=O)N[C@@H](CC(C)C)C(=O)N[C@H](C(=O)N[C@@H](CCCCN)C(=O)N[C@@H](CC(N)=O)C(=O)N[C@@H](CC(C)C)C(N)=O)C(C)C [FLSMIPKIAGGIASLVKNL]

MIC [1]: ≥ 512 µM
MIC [4]: 2 µM (≈ 2.9 µg/mL)
MIC [2]: 1 µM (≈ 1.45 µg/mL)
MIC [3]: 2 µM (≈ 2.9 µg/mL)
MIC [5]: 2 µM (≈ 2.9 µg/mL)
MIC [6]: > 512 µM
SMILES: CC[C@H](C)[C@H](NC(=O)[C@H](Cc1ccc(O)cc1)NC(=O)[C@H](CC(C)C)NC(=O)[C@@H](N)Cc1ccccc1)C(=O)N[C@H](C(=O)N[C@@H](C)C(=O)N[C@@H](CCCCN)C(=O)N[C@@H](CC(C)C)C(=O)N[C@@H](CC(C)C)C(=O)N[C@@H](CO)C(=O)NCC(=O)N[C@@H](CC(C)C)C(=O)N[C@@H](CC(C)C)C(N)=O)C(C)C [FLYIVAKLLSGLL]

MIC [8]: 12.5 µM (≈ 16.4 µg/mL)
SMILES: CC[C@H](C)[C@H](NC(=O)[C@H](Cc1c[nH]c2ccccc12)NC(=O)[C@H](CCCN=C(N)N)NC(=O)[C@H](C)NC(=O)[C@H](Cc1c[nH]c2ccccc12)NC(=O)[C@@H](N)CCCCN)C(=O)N[C@@H](CCCN=C(N)N)C(=O)N[C@@H](Cc1c[nH]c2ccccc12)C(=O)N[C@@H](CC(C)C)C(N)=O [KWARWIRWL]

MIC [8]: 12.5 µM (≈ 17 µg/mL)
SMILES: CC[C@H](C)[C@H](NC(=O)[C@H](Cc1c[nH]c2ccccc12)NC(=O)[C@H](CCCN=C(N)N)NC(=O)[C@H](CCCN=C(N)N)NC(=O)[C@H](Cc1c[nH]c2ccccc12)NC(=O)[C@@H](N)CCCCN)C(=O)N[C@@H](CCCN=C(N)N)C(=O)N[C@@H](Cc1c[nH]c2ccccc12)C(=O)N[C@@H](C)C(N)=O [KWRRWIRWA]

MIC [8]: ≥ 100 µM
SMILES: CC(C)C[C@H](NC(=O)[C@H](CC(C)C)NC(=O)[C@H](CCCCN)NC(=O)[C@H](CCCCN)NC(=O)[C@H](CC(C)C)NC(=O)[C@H](CC(C)C)NC(=O)[C@H](CC(C)C)NC(=O)[C@H](CC(C)C)NC(=O)[C@@H](N)CC(C)C)C(N)=O [LLLLLKKLL]

MIC [9]: ≥ 75 µM
SMILES: CC[C@H](C)[C@H](NC(=O)[C@H](CO)NC(=O)[C@H](CCCCN)NC(=O)[C@@H](N)CO)C(=O)N1CCC[C@H]1C(=O)NCC(=O)N[C@@H](CCCN=C(N)N)C(=O)N[C@@H](CO)C(=O)NCC(=O)O [SKSIPGRSG]
